Results: patent US20230111310A1, “CARBOXYLIC ACID DERIVATIVE-SUBSTITUTED IMINO ARYL COMPOUND, PREPARATION METHOD THEREFOR, HERBICIDAL COMPOSITION AND USE THEREOF” (Qingdao Kingagroot Chemical Compound Co., Ltd., priority 2020, published 2023)

Assays:
Assay in all cases: Weeding effect in post-emergence stage
Assay type in all cases: in vivo
Echinochloa crusgalli = details: for Weeding effect in post-emergence stage, Echinochloa crusgalli: level of fresh weight growth control rate; for Weeding effect in post-emergence stage, Echinochloa crusgalli (level): fresh weight control rate level
How it was run: (§1)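 Seeds are sown in soil-filled pots under 0.5-2 cm soil and grown 2 weeks in greenhouse. Plants at 2-3 leaves are sprayed with compound (acetone, Tween 80, 1.5 liter/ha methyl oleate EC, water) at 7.5 to 500 g/ha. Damage is rated 3 weeks later, averaging three repeats.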

Eleusine indica = details: for Weeding effect in post-emergence stage, Eleusine indica: level of fresh weight growth control rate; for Weeding effect in post-emergence stage, Eleusine indica (level): fresh weight control rate level
How it was run: as §1

Digitaria sanguinalis = details: for Weeding effect in post-emergence stage, Digitaria sanguinalis: level of fresh weight growth control rate; for Weeding effect in post-emergence stage, Digitaria sanguinalis (level): fresh weight control rate level
How it was run: as §1

Abutilon theophrasti = details: for Weeding effect in post-emergence stage, Abutilon theophrasti: level of fresh weight growth control rate; for Weeding effect in post-emergence stage, Abutilon theophrasti (level): fresh weight control rate level
How it was run: as §1

Setaria viridis = details: for Weeding effect in post-emergence stage, Setaria viridis: level of fresh weight growth control rate; for Weeding effect in post-emergence stage, Setaria viridis (level): fresh weight control rate level
How it was run: as §1

Alopecurus japonicus = details: for Weeding effect in post-emergence stage, Alopecurus japonicus: level of fresh weight growth control rate; for Weeding effect in post-emergence stage, Alopecurus japonicus (level): fresh weight control rate level
How it was run: as §1

## CC(O/N=C/c1cc(-n2c(=O)cc(C(F)(F)F)n(C)c2=O)c(F)cc1Cl)C(=O)OCCO (racemic) [Compound 228]
Echinochloa crusgalli; Dose 15 g/ha
  Weeding effect in post-emergence stage, Echinochloa crusgalli: 5 (Level 5: growth control rate is above 85%)
Eleusine indica; Dose 15 g/ha
  Weeding effect in post-emergence stage, Eleusine indica: 5 (Level 5: growth control rate is above 85%)
Digitaria sanguinalis; Dose 15 g/ha
  Weeding effect in post-emergence stage, Digitaria sanguinalis: 5 (Level 5: growth control rate is above 85%)
Abutilon theophrasti; Dose 15 g/ha
  Weeding effect in post-emergence stage, Abutilon theophrasti: 5 (Level 5: growth control rate is above 85%)
Setaria viridis; Dose 15 g/ha
  Weeding effect in post-emergence stage, Setaria viridis: 5 (Level 5: growth control rate is above 85%)
Alopecurus japonicus; Dose 15 g/ha
  Weeding effect in post-emergence stage, Alopecurus japonicus: 5 (Level 5: growth control rate is above 85%)

## COC(=O)C(C)O/N=C/c1cc(-n2c(=S)cc(C(F)(F)F)n(C)c2=O)c(F)cc1Cl (racemic) [Compound 349]
Echinochloa crusgalli; Dose 15 g/ha
  Weeding effect in post-emergence stage, Echinochloa crusgalli: 5 (Level 5: growth control rate is above 85%)
Eleusine indica; Dose 15 g/ha
  Weeding effect in post-emergence stage, Eleusine indica: 5 (Level 5: growth control rate is above 85%)
Digitaria sanguinalis; Dose 15 g/ha
  Weeding effect in post-emergence stage, Digitaria sanguinalis: 5 (Level 5: growth control rate is above 85%)
Abutilon theophrasti; Dose 15 g/ha
  Weeding effect in post-emergence stage, Abutilon theophrasti: 5 (Level 5: growth control rate is above 85%)
Setaria viridis; Dose 15 g/ha
  Weeding effect in post-emergence stage, Setaria viridis: 5 (Level 5: growth control rate is above 85%)
Alopecurus japonicus; Dose 15 g/ha
  Weeding effect in post-emergence stage, Alopecurus japonicus: 5 (Level 5: growth control rate is above 85%)

## COC(=O)C(C)O/N=C/c1cc(-n2c(=S)cc(C(F)(F)F)n(C)c2=S)c(F)cc1Cl (racemic) [Compound 351]
Echinochloa crusgalli; Dose 60 g/ha
  Weeding effect in post-emergence stage, Echinochloa crusgalli: 5 (Level 5: growth control rate is above 85%)
Eleusine indica; Dose 60 g/ha
  Weeding effect in post-emergence stage, Eleusine indica: 5 (Level 5: growth control rate is above 85%)
Digitaria sanguinalis; Dose 60 g/ha
  Weeding effect in post-emergence stage, Digitaria sanguinalis: 5 (Level 5: growth control rate is above 85%)
Abutilon theophrasti; Dose 60 g/ha
  Weeding effect in post-emergence stage, Abutilon theophrasti: 5 (Level 5: growth control rate is above 85%)
Setaria viridis; Dose 60 g/ha
  Weeding effect in post-emergence stage, Setaria viridis: 5 (Level 5: growth control rate is above 85%)
Alopecurus japonicus; Dose 60 g/ha
  Weeding effect in post-emergence stage, Alopecurus japonicus: 5 (Level 5: growth control rate is above 85%)

## COC(=O)C(C)O/N=C/c1cc(-n2c(=S)cc(C(F)(F)F)n(C)c2=O)c(F)cc1Br (racemic) [Compound 388]
Echinochloa crusgalli; Dose 15 g/ha
  Weeding effect in post-emergence stage, Echinochloa crusgalli (level): 5 (Level 5: growth control rate is above 85%)
Eleusine indica; Dose 15 g/ha
  Weeding effect in post-emergence stage, Eleusine indica (level): 5 (Level 5: growth control rate is above 85%)
Digitaria sanguinalis; Dose 15 g/ha
  Weeding effect in post-emergence stage, Digitaria sanguinalis (level): 5 (Level 5: growth control rate is above 85%)
Abutilon theophrasti; Dose 15 g/ha
  Weeding effect in post-emergence stage, Abutilon theophrasti (level): 5 (Level 5: growth control rate is above 85%)
Setaria viridis; Dose 15 g/ha
  Weeding effect in post-emergence stage, Setaria viridis (level): 5 (Level 5: growth control rate is above 85%)
Alopecurus japonicus; Dose 15 g/ha
  Weeding effect in post-emergence stage, Alopecurus japonicus (level): 4 (Level 4: growth control rate is greater than or equal to 60% and less than 85%)

## COC(=O)C(C)O/N=C/c1cc(-n2c(=S)cc(C(F)(F)F)n(C)c2=S)c(F)cc1C#N (racemic) [Compound 390]
Echinochloa crusgalli; Dose 15 g/ha
  Weeding effect in post-emergence stage, Echinochloa crusgalli (level): 5 (Level 5: growth control rate is above 85%)
Eleusine indica; Dose 15 g/ha
  Weeding effect in post-emergence stage, Eleusine indica (level): 5 (Level 5: growth control rate is above 85%)
Digitaria sanguinalis; Dose 15 g/ha
  Weeding effect in post-emergence stage, Digitaria sanguinalis (level): 5 (Level 5: growth control rate is above 85%)
Abutilon theophrasti; Dose 15 g/ha
  Weeding effect in post-emergence stage, Abutilon theophrasti (level): 5 (Level 5: growth control rate is above 85%)
Setaria viridis; Dose 15 g/ha
  Weeding effect in post-emergence stage, Setaria viridis (level): 5 (Level 5: growth control rate is above 85%)
Alopecurus japonicus; Dose 15 g/ha
  Weeding effect in post-emergence stage, Alopecurus japonicus (level): 5 (Level 5: growth control rate is above 85%)

## COC(=O)C(C)O/N=C/c1cc(-n2c(=S)cc(C(F)(F)F)n(C)c2=S)c(F)cc1Br (racemic) [Compound 391]
Echinochloa crusgalli; Dose 60 g/ha
  Weeding effect in post-emergence stage, Echinochloa crusgalli (level): 5 (Level 5: growth control rate is above 85%)
Eleusine indica; Dose 60 g/ha
  Weeding effect in post-emergence stage, Eleusine indica (level): 5 (Level 5: growth control rate is above 85%)
Digitaria sanguinalis; Dose 60 g/ha
  Weeding effect in post-emergence stage, Digitaria sanguinalis (level): 5 (Level 5: growth control rate is above 85%)
Abutilon theophrasti; Dose 60 g/ha
  Weeding effect in post-emergence stage, Abutilon theophrasti (level): 5 (Level 5: growth control rate is above 85%)
Setaria viridis; Dose 60 g/ha
  Weeding effect in post-emergence stage, Setaria viridis (level): 5 (Level 5: growth control rate is above 85%)
Alopecurus japonicus; Dose 60 g/ha
  Weeding effect in post-emergence stage, Alopecurus japonicus (level): 5 (Level 5: growth control rate is above 85%)

## COC(=O)C(C)O/N=C/c1cc(-n2c(=S)cc(C(F)(F)F)n(C)c2=S)c(F)cc1C(F)(F)F (racemic) [Compound 392]
Echinochloa crusgalli; Dose 60 g/ha
  Weeding effect in post-emergence stage, Echinochloa crusgalli (level): 5 (Level 5: growth control rate is above 85%)
Eleusine indica; Dose 60 g/ha
  Weeding effect in post-emergence stage, Eleusine indica (level): 5 (Level 5: growth control rate is above 85%)
Digitaria sanguinalis; Dose 60 g/ha
  Weeding effect in post-emergence stage, Digitaria sanguinalis (level): 5 (Level 5: growth control rate is above 85%)
Abutilon theophrasti; Dose 60 g/ha
  Weeding effect in post-emergence stage, Abutilon theophrasti (level): 5 (Level 5: growth control rate is above 85%)
Setaria viridis; Dose 60 g/ha
  Weeding effect in post-emergence stage, Setaria viridis (level): 5 (Level 5: growth control rate is above 85%)
Alopecurus japonicus; Dose 60 g/ha
  Weeding effect in post-emergence stage, Alopecurus japonicus (level): 5 (Level 5: growth control rate is above 85%)

## COC(=O)C(C)O/N=C/c1cc(-n2c(=S)cc(C(F)(F)F)n(C)c2=S)c(F)cc1C#N (racemic) [Compound 393]
Echinochloa crusgalli; Dose 60 g/ha
  Weeding effect in post-emergence stage, Echinochloa crusgalli (level): 5 (Level 5: growth control rate is above 85%)
Eleusine indica; Dose 60 g/ha
  Weeding effect in post-emergence stage, Eleusine indica (level): 5 (Level 5: growth control rate is above 85%)
Digitaria sanguinalis; Dose 60 g/ha
  Weeding effect in post-emergence stage, Digitaria sanguinalis (level): 5 (Level 5: growth control rate is above 85%)
Abutilon theophrasti; Dose 60 g/ha
  Weeding effect in post-emergence stage, Abutilon theophrasti (level): 5 (Level 5: growth control rate is above 85%)
Setaria viridis; Dose 60 g/ha
  Weeding effect in post-emergence stage, Setaria viridis (level): 5 (Level 5: growth control rate is above 85%)
Alopecurus japonicus; Dose 60 g/ha
  Weeding effect in post-emergence stage, Alopecurus japonicus (level): 5 (Level 5: growth control rate is above 85%)

## COC(=O)C(C)O/N=C/c1cc(-n2c(=O)cc(C(F)(F)F)n(C)c2=S)c(F)cc1Br (racemic) [Compound 394]
Echinochloa crusgalli; Dose 60 g/ha
  Weeding effect in post-emergence stage, Echinochloa crusgalli (level): 5 (Level 5: growth control rate is above 85%)
Eleusine indica; Dose 60 g/ha
  Weeding effect in post-emergence stage, Eleusine indica (level): 5 (Level 5: growth control rate is above 85%)
Digitaria sanguinalis; Dose 60 g/ha
  Weeding effect in post-emergence stage, Digitaria sanguinalis (level): 5 (Level 5: growth control rate is above 85%)
Abutilon theophrasti; Dose 60 g/ha
  Weeding effect in post-emergence stage, Abutilon theophrasti (level): 5 (Level 5: growth control rate is above 85%)
Setaria viridis; Dose 60 g/ha
  Weeding effect in post-emergence stage, Setaria viridis (level): 5 (Level 5: growth control rate is above 85%)
Alopecurus japonicus; Dose 60 g/ha
  Weeding effect in post-emergence stage, Alopecurus japonicus (level): 5 (Level 5: growth control rate is above 85%)

## COC(=O)C(C)O/N=C/c1cc(-n2c(=O)cc(C(F)(F)F)n(C)c2=S)c(F)cc1C(F)(F)F (racemic) [Compound 395]
Echinochloa crusgalli; Dose 60 g/ha
  Weeding effect in post-emergence stage, Echinochloa crusgalli (level): 5 (Level 5: growth control rate is above 85%)
Eleusine indica; Dose 60 g/ha
  Weeding effect in post-emergence stage, Eleusine indica (level): 5 (Level 5: growth control rate is above 85%)
Digitaria sanguinalis; Dose 60 g/ha
  Weeding effect in post-emergence stage, Digitaria sanguinalis (level): 5 (Level 5: growth control rate is above 85%)
Abutilon theophrasti; Dose 60 g/ha
  Weeding effect in post-emergence stage, Abutilon theophrasti (level): 5 (Level 5: growth control rate is above 85%)
Setaria viridis; Dose 60 g/ha
  Weeding effect in post-emergence stage, Setaria viridis (level): 5 (Level 5: growth control rate is above 85%)
Alopecurus japonicus; Dose 60 g/ha
  Weeding effect in post-emergence stage, Alopecurus japonicus (level): 5 (Level 5: growth control rate is above 85%)

## COC(=O)C(C)O/N=C/c1cc(-n2c(=O)cc(C(F)(F)F)n(C)c2=S)c(F)cc1C#N (racemic) [Compound 396]
Echinochloa crusgalli; Dose 60 g/ha
  Weeding effect in post-emergence stage, Echinochloa crusgalli (level): 5 (Level 5: growth control rate is above 85%)
Eleusine indica; Dose 60 g/ha
  Weeding effect in post-emergence stage, Eleusine indica (level): 5 (Level 5: growth control rate is above 85%)
Digitaria sanguinalis; Dose 60 g/ha
  Weeding effect in post-emergence stage, Digitaria sanguinalis (level): 5 (Level 5: growth control rate is above 85%)
Abutilon theophrasti; Dose 60 g/ha
  Weeding effect in post-emergence stage, Abutilon theophrasti (level): 5 (Level 5: growth control rate is above 85%)
Setaria viridis; Dose 60 g/ha
  Weeding effect in post-emergence stage, Setaria viridis (level): 5 (Level 5: growth control rate is above 85%)
Alopecurus japonicus; Dose 60 g/ha
  Weeding effect in post-emergence stage, Alopecurus japonicus (level): 5 (Level 5: growth control rate is above 85%)

## COC(=O)C(CC(C)C)O/N=C/c1cc(-n2c(=O)cc(C(F)(F)F)n(C)c2=O)c(F)cc1Cl (racemic) [Compound 455]
Echinochloa crusgalli; Dose 15 g/ha
  Weeding effect in post-emergence stage, Echinochloa crusgalli (level): 5 (Level 5: growth control rate is above 85%)
Eleusine indica; Dose 15 g/ha
  Weeding effect in post-emergence stage, Eleusine indica (level): 5 (Level 5: growth control rate is above 85%)
Digitaria sanguinalis; Dose 15 g/ha
  Weeding effect in post-emergence stage, Digitaria sanguinalis (level): 5 (Level 5: growth control rate is above 85%)
Abutilon theophrasti; Dose 15 g/ha
  Weeding effect in post-emergence stage, Abutilon theophrasti (level): 5 (Level 5: growth control rate is above 85%)
Setaria viridis; Dose 15 g/ha
  Weeding effect in post-emergence stage, Setaria viridis (level): 5 (Level 5: growth control rate is above 85%)
Alopecurus japonicus; Dose 15 g/ha
  Weeding effect in post-emergence stage, Alopecurus japonicus (level): 5 (Level 5: growth control rate is above 85%)

## COC(=O)C(O/N=C/c1cc(-n2c(=O)cc(C(F)(F)F)n(C)c2=O)c(F)cc1Cl)C1CC1 (racemic) [Compound 456]
Echinochloa crusgalli; Dose 30 g/ha
  Weeding effect in post-emergence stage, Echinochloa crusgalli (level): 5 (Level 5: growth control rate is above 85%)
Eleusine indica; Dose 30 g/ha
  Weeding effect in post-emergence stage, Eleusine indica (level): 5 (Level 5: growth control rate is above 85%)
Digitaria sanguinalis; Dose 30 g/ha
  Weeding effect in post-emergence stage, Digitaria sanguinalis (level): 5 (Level 5: growth control rate is above 85%)
Abutilon theophrasti; Dose 30 g/ha
  Weeding effect in post-emergence stage, Abutilon theophrasti (level): 5 (Level 5: growth control rate is above 85%)
Setaria viridis; Dose 30 g/ha
  Weeding effect in post-emergence stage, Setaria viridis (level): 5 (Level 5: growth control rate is above 85%)
Alopecurus japonicus; Dose 30 g/ha
  Weeding effect in post-emergence stage, Alopecurus japonicus (level): 5 (Level 5: growth control rate is above 85%)
